Columns and labels:
[1] = Equilibration in solvents and buffers: form conversion
[2] = Intrinsic dissolution rate, rotation disk method; assay type: physicochemical; conditions: for Intrinsic Dissolution Rate: 37° C., 200 r.p.m.
Procedure: Intrinsic Dissolution: […] […] Pellets of the other salts remained intact for at least several minutes enabling the determination of the intrinsic dissolution rate. Dissolution rate studies were performed using the rotation disk method ([…] Instrument). A single rotation speed of 200 r.p.m. was used to dissolve drug substance into a 500 mL vessel at 37° C. The solution was continuously pumped through a UV cell measurement and returned to the dissolution vessel.

Solid-state stability = assay type: physicochemical; conditions: for Bulk stability (XRPD): 1 week
Procedure: (§1) All samples were prepared/diluted to a concentration of 0.2 mg/mL in methanol prior to analysis by HPLC. A freshly prepared sample of each salt was used as the reference standard for external standard calibration analysis.

[3] = Solubility, 24-hour equilibration at room temperature; assay type: physicochemical; conditions: for Solubility: approx. at 25° C.
Procedure: Aqueous Solubility: A carefully weighted amount (20-50 mg) of sample is dissolved in 1 ml of solvent with 24-hour equilibration at room temperature. The solubility was determined either gravimetrically or by UV-VIS spectrometry. The pH of the clear solution was also measured. However, the difficulty of determining salt solubilities in water should be stressed, since upon dissolution dissociation to the free form is possible, which affects both the solubility and the pH. It's not unlikely that attempts to make solutions of a salt at a concentration well below the reported solubility of the salt to be unsuccessful (for a full discussion see: M. Pudipeddi, A. T. M. Serajuddin, D. J. W. Grant, and P. H. Stahl in “Handbook of Pharmaceutical Salts Properties Selection and Use” page 27 and references therein).

[4] = Stability of mixtures with excipients; assay type: physicochemical
Procedure: as §1

[5] = Solution stability (HPLC); assay type: physicochemical
Procedure: as §1

[6] = pH of saturated solution or 1% suspension in water; assay type: physicochemical; conditions: room temperature
Procedure: pH Value: The pH at room temperature of a saturated solution or 1% suspension of the drug substance in water was recorded.

[7] = pH of saturated solution or 1% suspension in water; assay type: physicochemical; conditions: In pH = 6.8 buffer
[8] = Bulk stability, 2 weeks, 50° C.
[9] = Bulk stability, 2 weeks, 50° C./20% water
[10] = Bulk stability, 2 weeks, 50° C./75% r.h.
[11] = Light study, 1200 kLux (300-800 nm)
[12] = Mixture 1: 50% PVP + 50% Crospovidone, 50° C./75% r.h., 2 weeks
[13] = Mixture 2: 50% Starch 1500 + 5% MCC 102, 50° C./75% r.h., 2 weeks
[14] = Mixture 3: 5% PVP + 5% Crospovidone + 10% Starch 1500 + 80% MCC 102, 50° C./75% r.h., 2 weeks
[15] = Mixture 4: 99% Lactose + 1% BHT/BHA, 50° C./75% r.h., 2 weeks
[16] = Mixture 5: 99% Mannitol + 1% BHT/BHA, 50° C./75% r.h., 2 weeks
[17] = Mixture 6: 50% Mannitol + 47% HPCLH21 + 1% BHT/BHA + 2% Magnesium Stearate, 50° C./75% r.h., 2 weeks
[18] = Mixture 7: 50% Cetyl Alcohol + 49% HPCLH21 + 1% Magnesium Stearate, 50° C./75% r.h., 2 weeks
[19] = Mixture 8: 100% PEG 3350, 50° C./75% r.h., 2 weeks
[20] = 2 mg/mL in methanol, 1 week at 50° C.
[21] = 2 mg/mL in water, 1 week at 50° C.
[22] = 2 mg/mL, 100 mM lactate buffer pH 3.5, 1 week at 50° C.
[23] = 2% in 0.5% HPMC 4000, 1 day at RT
[24] = 2% in 0.5% Klucel HF, 1 day at RT
[25] = 2% in 0.8% Tween 80, 1 day at RT
[26] = 5% solution, 1 day at RT (diluted 1:100 in pH 6.8 buffer)

Which results are given for Cc1[nH]c2ccccc2c1CCNCc1ccc(/C=C/C(=O)NO)cc1.Cl [HCl, hydrochloride salt of N-hydroxy-3-[4-[[[2-(2-methyl-1H-indol-3-yl)ethyl]amino]methyl]phenyl]-2E-2-propenamide]?
polymorphs upon equilibration ([1]; ambient temperature): No additional polymorphs are detected; conversion upon equilibration ([1]; phosphate buffer (pH=6.8)): converts to the free base; intrinsic dissolution (rate), in words [2]: good; Intrinsic Dissolution Rate ([2]; HCl 0.1N): 0.13 mg min^−1 cm^−2; Intrinsic Dissolution Rate ([2]; Water, free base pellet disintegrated, not true intrinsic rate): 0.68 mg min^−1 cm^−2; Bulk stability (XRPD) (Solid-state stability; 80° C.): no change; Bulk stability (XRPD) (Solid-state stability; 80° C./75% r.h.): no change; % DP (total degradation products) (Solid-state stability; [8]): 0.44 % area; assay (Solid-state stability; [8]): [99.38]; % DP (total degradation products) (Solid-state stability; [9]): 0.56 % area; assay (Solid-state stability; [9]): [100.6]; % DP (total degradation products) (Solid-state stability; [10]): 0.56 % area; assay (Solid-state stability; [10]): [99.04]; % DP (total degradation products) (Solid-state stability; [11]): 2.58 % area; CL (appearance) (Solid-state stability; [11]): C (C = medium discoloration); assay (Solid-state stability; [11]): [98.15]; aqueous solubility [3]: 2.4 mg/mL; solubility in methanol, in words [3]: high; solubility in other common / remaining organic solvents, in words [3]: considerable; Solubility ([3]; 0.1N HCl): 0.2 mg/mL; Solubility ([3]; 2-Propanol): 0.8 mg/mL; Solubility ([3]; Acetone): 4.5 mg/mL; Solubility ([3]; Ethanol): 2.1 mg/mL; Solubility ([3]; Ethyl acetate): 6.5 mg/mL; Solubility ([3]; Methanol): 16.6 mg/mL; Solubility ([3]; Propylene glycol): 13.2 mg/mL; Solubility ([3]; Water): 2.4 mg/mL; approximate solubility in water as % ([3]; estimated from mg/mL assuming solution density 1 g/mL): approximately 0.3%; Solubility ([3]; pH = 6.8 buffer): 0.7 mg/mL; % DP (total degradation products) [4, 12]: 0.6 % area; % DS (drug substance) [4, 12]: 99.4 % area; % DP (total degradation products) [4, 13]: 0.5 % area; % DS (drug substance) [4, 13]: 99.5 % area; % DP (total degradation products) [4, 14]: 0.6 % area; % DS (drug substance) [4, 14]: 99.4 % area; % DP (total degradation products) [4, 15]: 0.5 % area; % DS (drug substance) [4, 15]: 99.5 % area; % DP (total degradation products) [4, 16]: 0.5 % area; % DS (drug substance) [4, 16]: 99.5 % area; % DP (total degradation products) [4, 17]: 0.5 % area; % DS (drug substance) [4, 17]: 99.5 % area; % DP (total degradation products) [4, 18]: 0.5 % area; % DS (drug substance) [4, 18]: 99.5 % area; % DP (total degradation products) [4, 19]: 0.5 % area; % DS (drug substance) [4, 19]: 99.5 % area; % DP (total degradation products) ([4]; Standard, freshly prepared): 0.3 % area; % DS (drug substance) ([4]; Standard, freshly prepared): 99.7 % area; stability with all excipient mixtures tested, in words ([4]; after 2 weeks at 50° C./75% r.h.): very good stability; pH of initial mixture ([5]; 2 mg/mL in 100 mM lactate buffer, pH 3.5): 3.52; % DP (total degradation products) [5, 20]: 0.38 % area; assay [5, 20]: [99.25]; pH of initial mixture ([5]; 2 mg/mL in water): 5.93; % DP (total degradation products) [5, 21]: 0.89 % area; CL (appearance) [5, 21]: A↓*; assay [5, 21]: [97.53]; % DP (total degradation products) [5, 22]: 1.30 % area; CL (appearance) [5, 22]: A↓*; assay ([5]; 2 mg/mL, 100 mM lactate buffer pH 3.5, 1 week at 50° C., external standard): [96.61]; % DP (total degradation products) ([5]; 2% in 0.5% CMC, 1 day at RT): 0.46 % area; CL (appearance) ([5]; 2% in 0.5% CMC, 1 day at RT): A↓↓; assay ([5]; 2% in 0.5% CMC, 1 day at RT): [85.28]; % DP (total degradation products) [5, 23]: 0.43 % area; assay [5, 23]: [100.0]; % DP (total degradation products) [5, 24]: 0.43 % area; assay [5, 24]: [100.6]; % DP (total degradation products) [5, 25]: 0.43 % area; assay [5, 25]: [97.83]; % DP (total degradation products) [5, 26]: 1.40 % area; CL (appearance) [5, 26]: A↓; assay [5, 26]: [98.91; stability characteristics, in words ([5]; both in solution and in the solid state): very good stability; Unstressed (% Area) ([5]; unstressed baseline of the stability study): 99.63% Area; pH of saturated solution [6]: 5.65; pH of saturated solution [7]: 5.67

Reference: patent US20110112308A1 (NOVARTIS AG, priority 2006, published 2011)
